Reference: paper PMC8851515 (Proceedings of the National Academy of Sciences of the …, 2022)

Target: T1, hDHHC20 (Homo sapiens, UniProt Q5W0Z9)
T1 sequence (Q5W0Z9 1-365): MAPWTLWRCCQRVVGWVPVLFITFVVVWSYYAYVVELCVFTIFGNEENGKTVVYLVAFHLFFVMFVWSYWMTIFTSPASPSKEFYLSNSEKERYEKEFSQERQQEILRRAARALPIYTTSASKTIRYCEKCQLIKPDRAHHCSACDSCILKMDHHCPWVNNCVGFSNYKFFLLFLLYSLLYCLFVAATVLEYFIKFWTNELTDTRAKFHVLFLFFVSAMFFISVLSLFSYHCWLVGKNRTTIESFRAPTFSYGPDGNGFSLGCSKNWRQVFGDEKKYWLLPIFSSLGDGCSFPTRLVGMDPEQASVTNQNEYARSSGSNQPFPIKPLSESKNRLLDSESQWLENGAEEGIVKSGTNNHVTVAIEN
Assay: coupled-enzyme PAT activity inhibition assay
Assay type: biochemical

`CCCCCCCCCCCCCCC(Br)C(=O)O` (stereo not shown) [2-bromopalmitic acid] gave an IC50 of 4.5 µM.
